Read-outs that look alike come from different tables or passages of the source.
Tests used:
[1] = tested on: ATF4; test: ATF4 expression inhibition assay (ATF4 5′UTR luciferase reporter, thapsigargin-stressed); format: cell-based; conditions: Homo sapiens, HEK-293T, read-out: ATF4 inhibition
Protocol: The ATF4 reporter was prepared by fusing the human full length 5′UTR of ATF4 (NCBI Accession No. BC022088.2) upstream of the firefly luciferase coding sequence lacking the initiator methionine. The fused sequence was cloned into pLenti-EF1a-C-Myc-DDK-IRES-Puro cloning vector (Origen #PS100085) using standard methods.
HEK293T cells carrying the ATF4 luciferase reporter were plated on 96-well plates (Nunc) at 10,000 cells per well. Cells were treated two days after seeding with 100 nM thapsigargin (Tg) (Sigma-Aldrich #T9033) in the presence of different concentrations of selected compounds ranging from 0.1 nM to […]. Cells without treatment or cells treated with Tg alone were used as controls. Assay plates containing cells were incubated for 3 hours at 37° C.
Luciferase reactions were performed using Luciferase Assay System (Promega #E1501) as specified by the manufacturer. Luminescence was read with an integration time of 1 s and a gain of 110 using a Cytation-5 multi-mode microplate reader (BioTek).

[2] = tested on: Chinese hamster ovary (CHO) cells; test: Protein synthesis assay (puromycin incorporation, Western blot); format: cell-based; conditions: Cricetulus griseus, read-out: % Protein synthesis relative to untreated (1 μM test compound)
Protocol: Chinese hamster ovary (CHO) cells were maintained at 37° C. and 5% CO2 in Dulbecco's Modified Eagle's Media (DMEM) supplemented with 10% fetal bovine serum, 2 mM L-glutamine, 100 U/ml penicillin, and 100 μg/ml streptomycin. After reaching 80% of confluence, cells were detached and seeded on 6 well plates in complete media, allowed to recover overnight and treated for 2 hours with 1 μM of the test compound (to assess protein synthesis levels in unstressed condition), or for 2 hours with 300 nM Tg in the presence of 1 μM of the test compound (to assess the recovery of protein synthesis in a stressed condition). Cells with Tg alone were used as controls.
After the 2 hours treatments, media were replaced by adding 10 μg/ml puromycin (Sigma Aldrich #P8833) in complete media for 30 min. Media were removed and cells were lysed with SDS-PAGE lysis buffer. Lysates were transferred to 1.5 ml tubes and sonicated for 3 min and total protein amount were quantified using BCA Protein Assay Kit (Pierce). Equal amount of protein (30 μg) was loaded on SDS-PAGE gels.
A HRP-conjugated secondary antibody (Rockland) was employed to detect immune-reactive bands using enhanced chemiluminescence (ECL Western Blotting Substrate, Pierce). Quantification of protein bands was done by densitometry using ImageJ software.
The percentage levels were normalized to the media alone condition, which correspond to 100% protein synthesis. […]

[3] = HEK293T cells carrying ATF4 luciferase reporter, 100 nM thapsigargin (Tg), 3 hours at 37° C.
[4] = unstressed CHO cells (without Tg), 2 hours, 1 μM test compound, media alone = 100%

IC50 [1, 3] | SMILES | IC50 ([1]; 3 h) | activity at 1 µM ([2]; CHO, 2 h) | activity at 1 µM [2, 4]
– | O=C(COc1ccc(Cl)cc1)N[C@H]1CC[C@H](C(=O)Nc2ccc3cc(Cl)ccc3n2)CC1 [Compound 1, trans-4-(2-(4-chlorophenoxy)acetamido)-N-(6-chloroquinolin-2-yl)cyclohexane-1-carboxamide] | < 10 nM | 91.8% | –
< 10 nM | O=C(N[C@H]1CC[C@H](C(=O)Nc2ccc3cc(Cl)ccc3n2)CC1)c1ccc2cc(Cl)ccc2n1 [Compound 2, trans-6-chloro-N-(4-((6-chloroquinolin-2-yl)carbamoyl)cyclohexyl)quinoline-2-carboxamide] | – | – | 163%
< 10 nM | O=C(COc1ccc(Cl)c(F)c1)N[C@H]1CC[C@H](C(=O)Nc2ccc3cc(Cl)ccc3n2)CC1 [Compound 3, trans-4-(2-(4-chloro-3-fluorophenoxy)acetamido)-N-(6-chloroquinolin-2-yl)cyclohexane-1-carboxamide] | – | – | 188%
< 10 nM | O=C(N[C@H]1CC[C@H](C(=O)Nc2ccc3cc(Cl)ccc3n2)CC1)c1cc2cc(Cl)ccc2o1 [Compound 4, trans-5-chloro-N-(4-((6-chloroquinolin-2-yl)carbamoyl)cyclohexyl)benzofuran-2-carboxamide] | – | – | 204%
< 10 nM | O=C(N[C@H]1CC[C@H](C(=O)Nc2ccc3cc(Cl)ccc3n2)CC1)C1CNc2cc(Cl)ccc2O1 (stereo partly drawn) [Compound 5, trans-6-chloro-N-(4-((6-chloroquinolin-2-yl)carbamoyl)cyclohexyl)-3,4-dihydro-2H-benzo[b][1,4]oxazine-2-carboxamide] | – | – | 195%
< 10 nM | O=C(N[C@H]1CC[C@H](C(=O)Nc2ccc3cc(Cl)ccc3n2)CC1)[C@H]1CNc2cc(Cl)ccc2O1 [Compound 6, trans-(R)-6-chloro-N-(4-((6-chloroquinolin-2-yl)carbamoyl)cyclohexyl)-3,4-dihydro-2H-benzo[b][1,4]oxazine-2-carboxamide] | – | – | 100%
< 10 nM | O=C(N[C@H]1CC[C@H](C(=O)Nc2ccc3cc(Cl)ccc3n2)CC1)[C@@H]1CNc2cc(Cl)ccc2O1 [Compound 7, trans-(S)-6-chloro-N-(4-((6-chloroquinolin-2-yl)carbamoyl)cyclohexyl)-3,4-dihydro-2H-benzo[b][1,4]oxazine-2-carboxamide] | – | – | 115%
10 to 100 nM | O=C(Nc1ccc2cc(Cl)ccc2n1)C1CCN(C[C@@H](O)COc2ccc(Cl)c(F)c2)CC1 [Compound 8, (R)-1-(3-(4-chloro-3-fluorophenoxy)-2-hydroxypropyl)-N-(6-chloroquinolin-2-yl)piperidine-4-carboxamide] | – | – | 156%
100 to 1000 nM | O=C(Nc1ccc2cc(Cl)ccc2n1)C1CCN(C[C@H](O)COc2ccc(Cl)c(F)c2)CC1 [Compound 9, (S)-1-(3-(4-chloro-3-fluorophenoxy)-2-hydroxypropyl)-N-(6-chloroquinolin-2-yl)piperidine-4-carboxamide] | – | – | 156%
10 to 100 nM | O=C(Nc1ccc2cc(Cl)ccc2n1)C1CCN(CCCOc2ccc(Cl)c(F)c2)CC1 [Compound 10, 1-(3-(4-chloro-3-fluorophenoxy)propyl)-N-(6-chloroquinolin-2-yl)piperidine-4-carboxamide] | – | – | 153%
100 to 1000 nM | O=C(Nc1ccc2cc(Cl)ccc2n1)[C@H]1CC[C@H](NCCOc2ccc(Cl)c(F)c2)CC1 [Compound 11, trans-4-(2-(4-chloro-3-fluorophenoxy)ethylamino)-N-(6-chloroquinolin-2-yl)cyclohexane-1-carboxamide] | – | – | 150%
< 10 nM | O=C(NN1CCC(C(=O)Nc2ccc3cc(Cl)ccc3n2)CC1)c1cc2cc(Cl)ccc2o1 [Compound 12, 1-(5-chlorobenzofuran-2-carboxamido)-N-(6-chloroquinolin-2-yl)piperidine-4-carboxamide] | – | – | 121%
– | O=C(COc1ccc(Cl)c(F)c1)N[C@H]1CC[C@H](C(=O)Nc2nc3cc(Cl)ccc3o2)CC1 [Compound 13, trans-4-(2-(4-chloro-3-fluorophenoxy)acetamido)-N-(5-chlorobenzo[d]oxazol-2-yl)cyclohexane-1-carboxamide] | 10 to 100 nM | 104% | –
– | O=C(C[C@H]1CC[C@H](NC(=O)COc2ccc(Cl)c(F)c2)CC1)Nc1ccc2cc(Cl)ccc2n1 [Compound 21, trans-2-(4-chloro-3-fluorophenoxy)-N-(4-(2-((6-chloroquinolin-2-yl)amino)-2-oxoethyl)cyclohexyl)acetamide] | 100 to 1000 nM | – | –
> 1000 nM | O=C(NC[C@H]1CC[C@H](C(=O)Nc2ccc3cc(Cl)ccc3n2)CC1)c1cnc(C(F)F)cn1 [Compound 23, trans-N-((4-((6-chloroquinolin-2-yl)carbamoyl)cyclohexyl)methyl)-5-(difluoromethyl)pyrazine-2-carboxamide] | – | – | –
100 to 1000 nM | O=C(NC[C@H]1CC[C@H](C(=O)Nc2ccc3cc(Cl)ccc3n2)CC1)c1ccc(C(F)(F)F)nc1 [Compound 37, trans-N-((4-((6-chloroquinolin-2-yl)carbamoyl)cyclohexyl)methyl)-6-(trifluoromethyl)nicotinamide] | – | – | –
100 to 1000 nM | O=C(NC[C@H]1CC[C@H](C(=O)Nc2ccc3cc(Cl)ccc3n2)CC1)c1ccc(C(F)(F)F)cn1 [Compound 38, trans-N-((4-((6-chloroquinolin-2-yl)carbamoyl)cyclohexyl)methyl)-5-(trifluoromethyl)picolinamide] | – | – | –
100 to 1000 nM | O=C(NC[C@H]1CC[C@H](C(=O)NCc2cc3cc(Cl)ccc3o2)CC1)c1ccc(C(F)(F)F)nc1 [Compound 51, N-((trans-4-(((5-chlorobenzofuran-2-yl)methyl)carbamoyl)cyclohexyl)methyl)-6-(trifluoromethyl)nicotinamide] | – | – | –
100 to 1000 nM | O=C(NC[C@H]1CC[C@H](C(=O)NCc2cc3cc(Cl)ccc3o2)CC1)c1ccc(C(F)(F)F)cn1 [Compound 52, N-((trans-4-(((5-chlorobenzofuran-2-yl)methyl)carbamoyl)cyclohexyl)methyl)-5-(trifluoromethyl)picolinamide] | – | – | –
– | O=C(CO[C@H]1C[C@@H](OC(F)(F)F)C1)N[C@H]1CC[C@H](C(=O)Nc2nc3cc(Cl)ccc3o2)CC1 [Compound 101, trans-N-(5-chlorobenzo[d]oxazol-2-yl)-4-(2-(cis-3-(trifluoromethoxy)cyclobutoxy)acetamido)cyclohexanecarboxamide] | 100 to 1000 nM | – | –
100 to 1000 nM | O=C(Nc1nc2cc(Cl)ccc2s1)[C@H]1CC[C@H](C(=O)N[C@H]2C[C@@H](OC(F)(F)F)C2)CC1 [Compound 123] | – | – | –

SMILES | IC50 [1, 3] | IC50 ([1]; 3 h) | activity at 1 µM ([2]; CHO, 2 h) | activity at 1 µM [2, 4]
O=C(CO[C@H]1C[C@@H](OC(F)(F)F)C1)NN1CCC(C(=O)NCc2cc3cc(Cl)ccc3o2)CC1 [Compound 56, N-((5-chlorobenzofuran-2-yl)methyl)-1-(2-(cis-3-(trifluoromethoxy)cyclobutoxy)acetamido)piperidine-4-carboxamide] | 100 to 1000 nM | – | – | –
O=C(CO[C@H]1C[C@@H](OC(F)(F)F)C1)N[C@H]1CC[C@H](C(=O)NCc2cc3cc(Cl)ccc3o2)CC1 [Compound 59, trans-N-((5-chlorobenzofuran-2-yl)methyl)-4-(2-(cis-3-(trifluoromethoxy)cyclobutoxy)acetamido)cyclohexane-1-carboxamide] | 100 to 1000 nM | – | – | –
O=C(CO[C@H]1C[C@@H](OC(F)(F)F)C1)N[C@H]1CC[C@H](C(=O)NCC2CNc3cc(Cl)ccc3O2)CC1 (stereo partly drawn) [Compound 79, trans-N-((6-chloro-3,4-dihydro-2H-benzo[b][1,4]oxazin-2-yl)methyl)-4-(2-(cis-3-(trifluoromethoxy)cyclobutoxy)acetamido)cyclohexane-1-carboxamide] | 100 to 1000 nM | – | – | –
O=C(CO[C@H]1C[C@@H](OC(F)(F)F)C1)NN1CCC(C(=O)NCC2CNc3cc(Cl)ccc3O2)CC1 (stereo partly drawn) [Compound 80, N-((6-chloro-3,4-dihydro-2H-benzo[b][1,4]oxazin-2-yl)methyl)-1-(2-(cis-3-(trifluoromethoxy)cyclobutoxy)acetamido)piperidine-4-carboxamide] | 100 to 1000 nM | – | – | –
O=C(CO[C@H]1C[C@@H](OC(F)(F)F)C1)NN1CCC(C(=O)Nc2nc3cc(Cl)ccc3s2)CC1 [Compound 121, N-(5-chlorobenzo[d]thiazol-2-yl)-1-(2-(cis-3-(trifluoromethoxy)cyclobutoxy)acetamido)piperidine-4-carboxamide] | 100 to 1000 nM | – | – | –
